From ChEMBL document CHEMBL1142863, “A potent, covalent inhibitor of orotidine 5'-monophosphate decarboxylase with antimalarial activity” (J Med Chem, 2007) come the findings set out here.

Data set [1] in a line: Dissociation constant, pKa of the compound. Format: physicochemical.
Data set [2] in a line: Solubility in distilled water. It is filed as physicochemical.
Data set [3] has as its system Plasmodium falciparum. Description: Antiparasitic activity against chloroquine-resistant Plasmodium falciparum ItG after 48 hrs by SYBR-Green assay. Format: functional, organism-based.
Data set [4] concerns the target Orotidine 5'-phosphate decarboxylase (Methanobacterium thermoautotrophicum) (UniProt O26232). Briefly: Inhibition of Methanobacterium thermoautotrophicum ODCase at 50 uM after 8 hrs. The note with it: Methanothermobacter thermautotrophicus. Further details: scale not given: the % may be the effect or the level left.
The target is the same in data set [5]. Briefly: Inhibition of Methanobacterium thermoautotrophicum ODCase at 250 uM in less than 30 mins. The note with it: Methanothermobacter thermautotrophicus.
Data set [6] deals with T1, Orotidine phosphate decarboxylase (Plasmodium falciparum) (UniProt Q8T6J6).
T1 sequence (whole entry): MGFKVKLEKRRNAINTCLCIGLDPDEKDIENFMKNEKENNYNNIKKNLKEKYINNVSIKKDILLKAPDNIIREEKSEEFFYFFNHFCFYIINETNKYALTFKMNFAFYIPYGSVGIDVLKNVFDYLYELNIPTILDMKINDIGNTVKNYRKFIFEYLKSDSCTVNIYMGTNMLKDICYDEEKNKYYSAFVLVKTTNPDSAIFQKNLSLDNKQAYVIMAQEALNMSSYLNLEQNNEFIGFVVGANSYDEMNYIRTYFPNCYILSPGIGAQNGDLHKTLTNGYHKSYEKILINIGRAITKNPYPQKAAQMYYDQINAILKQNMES
Briefly: Inhibition of Plasmodium falciparum ODCase.

Values after ≈ are worked out from the molar mass of the structure shown. Active and inactive are the calls of the source. The rule behind the calls is not given here.

Orotidine 5'-phosphate decarboxylase (Methanobacterium thermoautotrophicum), sequence (O26232 whole entry, looked up): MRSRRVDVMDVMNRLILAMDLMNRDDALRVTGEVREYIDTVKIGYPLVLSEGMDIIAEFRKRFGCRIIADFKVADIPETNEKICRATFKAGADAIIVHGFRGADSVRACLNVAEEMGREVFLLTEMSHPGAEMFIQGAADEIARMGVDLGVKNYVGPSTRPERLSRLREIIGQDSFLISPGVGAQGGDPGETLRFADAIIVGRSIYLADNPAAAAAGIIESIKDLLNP

With `O=c1cc(I)n([C@@H]2O[C@H](CO)[C@@H](O)[C@H]2O)c(=O)[nH]1`, in data set [1], the pKa (commonly the negative logarithm of the acid dissociation constant) amounted to 8.42. Besides, the solubility (usually the concentration that dissolves in the medium under given conditions) in data set [2] was determined as 4320 µg/mL (≈ 11.7 mM). Further, in data set [3], 4.4 µM corresponded to half-maximal inhibition (IC50).
With `O=c1cc(I)n([C@@H]2O[C@H](COP(=O)(O)O)[C@@H](O)[C@H]2O)c(=O)[nH]1`, in data set [4], the Activity was greater than 60%. Also, the outcome in data set [5] and in data set [6] was Active.
